# Where two headings read alike, the source gives them in different places.
# Columns and labels:
# hRSV strain Long = experiment: hRSV CPE assay; assay type: cell-based, human respiratory syncytial virus
# RSV = experiment: viral titer; assay type: cell-based, human respiratory syncytial virus; details: for log reduction at 10 µM: human respiratory syncytial virus, read-out: viral titer reduction at 10 µM
# recRSV-luciferase = recRSV-luciferase assay; assay type: cell-based, respiratory syncytial virus; details: luciferase readout
# recMeV-luciferase = recMeV-luciferase assay; assay type: cell-based, measles virus; details: luciferase readout, reporter interference control
# [1] = biological target: calcium channel, L-type, dihydropyridine (Rattus norvegicus, UniProt P22002); experiment: Panlabs 214600 radioligand binding; details: read-out: % Inh.
# Sequence of calcium channel, L-type, dihydropyridine (P22002 whole entry): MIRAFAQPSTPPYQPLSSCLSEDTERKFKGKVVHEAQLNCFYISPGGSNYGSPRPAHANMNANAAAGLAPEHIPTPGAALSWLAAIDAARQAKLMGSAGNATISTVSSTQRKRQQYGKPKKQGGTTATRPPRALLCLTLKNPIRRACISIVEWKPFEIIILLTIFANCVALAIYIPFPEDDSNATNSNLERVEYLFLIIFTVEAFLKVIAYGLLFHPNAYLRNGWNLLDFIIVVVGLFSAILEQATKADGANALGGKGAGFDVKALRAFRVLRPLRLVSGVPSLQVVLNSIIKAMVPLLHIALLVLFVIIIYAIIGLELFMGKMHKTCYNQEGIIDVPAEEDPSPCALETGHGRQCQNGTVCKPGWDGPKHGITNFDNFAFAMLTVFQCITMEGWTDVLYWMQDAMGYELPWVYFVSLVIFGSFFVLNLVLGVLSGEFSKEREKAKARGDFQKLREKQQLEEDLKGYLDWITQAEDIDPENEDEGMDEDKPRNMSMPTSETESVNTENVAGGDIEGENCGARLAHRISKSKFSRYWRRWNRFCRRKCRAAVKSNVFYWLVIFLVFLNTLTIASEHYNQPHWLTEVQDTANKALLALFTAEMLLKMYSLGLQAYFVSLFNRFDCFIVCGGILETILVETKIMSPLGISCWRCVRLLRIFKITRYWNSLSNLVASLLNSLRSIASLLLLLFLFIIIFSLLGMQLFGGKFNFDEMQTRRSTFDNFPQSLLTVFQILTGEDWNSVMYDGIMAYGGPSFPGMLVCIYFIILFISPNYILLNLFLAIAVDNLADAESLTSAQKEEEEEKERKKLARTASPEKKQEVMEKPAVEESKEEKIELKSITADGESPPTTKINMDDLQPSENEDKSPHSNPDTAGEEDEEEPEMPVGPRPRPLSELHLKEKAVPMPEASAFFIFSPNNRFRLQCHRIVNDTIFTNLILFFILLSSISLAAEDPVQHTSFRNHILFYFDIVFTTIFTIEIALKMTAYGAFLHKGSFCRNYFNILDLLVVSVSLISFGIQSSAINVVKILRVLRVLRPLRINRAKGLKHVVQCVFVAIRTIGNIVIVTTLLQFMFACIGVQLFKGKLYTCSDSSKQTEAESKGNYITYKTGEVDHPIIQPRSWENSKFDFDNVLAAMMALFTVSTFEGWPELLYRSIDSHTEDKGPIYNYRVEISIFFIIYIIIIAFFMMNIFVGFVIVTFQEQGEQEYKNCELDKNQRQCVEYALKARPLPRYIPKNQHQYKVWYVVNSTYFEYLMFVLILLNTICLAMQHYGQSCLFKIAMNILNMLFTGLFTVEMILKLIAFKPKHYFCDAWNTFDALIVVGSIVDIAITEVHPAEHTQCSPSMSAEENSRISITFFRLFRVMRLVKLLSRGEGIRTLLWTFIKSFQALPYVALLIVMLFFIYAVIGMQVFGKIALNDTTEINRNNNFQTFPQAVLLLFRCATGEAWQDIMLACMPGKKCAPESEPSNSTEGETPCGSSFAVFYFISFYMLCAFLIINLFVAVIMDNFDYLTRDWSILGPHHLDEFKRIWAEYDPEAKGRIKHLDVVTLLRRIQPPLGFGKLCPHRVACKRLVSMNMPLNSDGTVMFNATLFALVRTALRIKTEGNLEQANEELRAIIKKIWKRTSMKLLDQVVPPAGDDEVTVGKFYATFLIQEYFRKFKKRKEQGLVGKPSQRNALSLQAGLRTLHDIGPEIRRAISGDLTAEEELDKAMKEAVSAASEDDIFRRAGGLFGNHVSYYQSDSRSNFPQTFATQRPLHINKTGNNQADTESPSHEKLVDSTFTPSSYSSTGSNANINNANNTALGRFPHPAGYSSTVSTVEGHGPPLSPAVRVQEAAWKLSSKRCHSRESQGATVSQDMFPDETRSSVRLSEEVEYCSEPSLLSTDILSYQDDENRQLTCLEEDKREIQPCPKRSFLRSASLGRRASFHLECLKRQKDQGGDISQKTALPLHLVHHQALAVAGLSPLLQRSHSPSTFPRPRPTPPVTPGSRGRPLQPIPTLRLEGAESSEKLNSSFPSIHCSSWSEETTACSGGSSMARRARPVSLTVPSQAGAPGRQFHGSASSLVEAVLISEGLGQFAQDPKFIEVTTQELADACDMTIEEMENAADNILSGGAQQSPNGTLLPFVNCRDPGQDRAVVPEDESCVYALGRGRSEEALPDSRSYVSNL
# [2] = biological target: calcium channel, L-type, benzothiazepine (Rattus norvegicus, UniProt P22002); experiment: biochemical; details: read-out: % Inh.
# Sequence of calcium channel, L-type, benzothiazepine (P22002 whole entry): as above
# [3] = not given; remark: listed apart in the source
# [4] = for Pe, PAMPA permeability: PBS, no additives
# [5] = test system: Fa2N-4 immortalized human hepatocytes; details: read-out: hepatocyte toxicity LC50
# [6] = human respiratory syncytial virus, HEp-2, read-out: RSV CPE potency ± standard deviation EC50, HEp-2 cells, hRSV strain Long, 10-point dose response
EC50 (hRSV strain Long; [6]),SMILES,log reduction at 10 µM (RSV),other results
700 ± 100 nM,"Cc1ccc(Cn2c(=O)n(Cc3ccc(C(=O)NCC4COC4)cc3)c(=O)c3ccccc32)cc1 [Compound 29, 4-((1-(4-Methylbenzyl)-2,4-dioxo-1,2-dihydroquinazolin-3(4H)-yl)methyl)-N-(oxetan-3-ylmethyl)benzamide]",5.1,–
1000 ± 80 nM,"Cc1ccc(Cn2c(=O)n(Cc3ccc(C(=O)NCC4CCC4)cc3)c(=O)c3ccccc32)cc1 [Compound 30, N-(Cyclobutylmethyl)-4-((1-(4-methylbenzyl)-2,4-dioxo-1,2-dihydroquinazolin-3(4H)-yl)methyl)benzamide]",1.2,–
700 ± 30 nM,"Cc1ccc(Cn2c(=O)n(Cc3ccc(C(=O)NC(C)(C)C)cc3)c(=O)c3ccccc32)cc1 [Compound 36, N-(tert-Butyl)-4-((1-(4-methylbenzyl)-2,4-dioxo-1,2-dihydroquinazolin-3(4H)-yl)methyl)benzamide]",5.5,–
1000 ± 40 nM,"Cc1ccc(Cn2c(=O)n(Cc3ccc(C(=O)Nc4ccncc4)cc3)c(=O)c3ccccc32)cc1 [Compound 42, 4-((1-(4-Methylbenzyl)-2,4-dioxo-1,2-dihydroquinazolin-3(4H)-yl)methyl)-N-(pyridin-4-yl)benzamide]",3.5,–
1300 ± 50 nM,"O=C(NCC1COC1)c1ccc(Cn2c(=O)c3ccccc3n(Cc3ccc([N+](=O)[O-])cc3)c2=O)cc1 [Compound 43, 4-((1-(4-Nitrobenzyl)-2,4-dioxo-1,2-dihydroquinazolin-3(4H)-yl)-methyl)-N-(oxetan-3-ylmethyl)benzamide]",> 6.2,increase in capacity to reduce viral titer over hit 2 (RSV; 10 µM): ≥ 2 log
400 ± 10 nM,"CC(C)c1ccc(Cn2c(=O)n(Cc3ccc(C(=O)NCC4COC4)cc3)c(=O)c3ccccc32)cc1 [Compound 44, 4-((1-(4-Isopropylbenzyl)-2,4-dioxo-1,2-dihydroquinazolin-3(4H)-yl)methyl)-N-(oxetan-3-ylmethyl)benzamide]",5.8,–
–,"CN(C)c1ccc(Cn2c(=O)n(Cc3ccc(C(=O)NCC4COC4)cc3)c(=O)c3ccccc32)cc1 [Compound 46, 4-((1-(4-(dimethylamino)benzyl)-2,4-dioxo-1,2-dihydroquinazolin-3(4H)-yl)methyl)-N-(oxetan-3-ylmethyl)-benzamide]",–,"selectivity index (CC50/EC50) (hRSV strain Long; HEp-2 CC50 / RSV CPE EC50): 41.8; EC50 (hRSV strain Long; read-out: RSV CPE potency ± standard deviation EC50, HEp-2 cells, hRSV strain Long, 10-point dose response): 1100 ± 200 nM; viral titer reduction at 10 µM (RSV; compound at 10 µM): >6.2 log; solubility, PBS (kinetic solubility in 1× PBS, pH 7.4): 11.2 µM; solubility, media (kinetic solubility in CPE assay media (DMEM/F12, Pen/Strep/Glutamine, 2% heat inactivated FBS)): 18.5 µM; aqueous stability, 1:1 PBS/ACN ([3]; percent parent remaining after 48 h in 1:1 PBS and acetonitrile): 100%; aqueous stability, PBS ([3]; percent parent remaining after 48 h in PBS): 90.2%; passive permeability in words ([4]; at each of 3 pH levels): Moderate to good; Pe, PAMPA permeability ([4]; donor pH 5.0, acceptor pH 7.4): 0.00078 cm/s; Pe, PAMPA permeability ([4]; donor pH 6.2, acceptor pH 7.4): 0.000686 cm/s; Pe, PAMPA permeability ([4]; donor pH 7.4, acceptor pH 7.4): 0.000514 cm/s; CC50 [5]: > 50 µM"
1600 ± 80 nM,"CC(C)(C)c1ccc(Cn2c(=O)n(Cc3ccc(C(=O)NCC4COC4)cc3)c(=O)c3ccccc32)cc1 [Compound 47, 4-((1-(4-tert-Butylbenzyl)-2,4-dioxo-1,2-dihydroquinazolin-3(4H)-yl)methyl)-N-(oxetan-3-ylmethyl)benzamide]",3.4,–
1200 ± 100 nM,"CC(C)c1ccc(Cn2c(=O)n(Cc3ccc(C(=O)NCc4ccco4)cc3)c(=O)c3ccccc32)cc1 [Compound 48, N-(Furan-2-ylmethyl)-4-((1-(4-isopropylbenzyl)-2,4-dioxo-1,2-dihydroquinazolin-3(4H)-yl)methyl)benzamide]",2.8,–

SMILES,EC50 (hRSV strain Long; [6]),log reduction at 10 µM (RSV),other results
"COCCCNC(=O)c1ccc(Cn2c(=O)c3ccccc3n(Cc3ccc(C(C)C)cc3)c2=O)cc1 [Compound 19, 4-((1-(4-isopropylbenzyl)-2,4-dioxo-1,2-dihydroquinazolin-3(4H)-yl)methyl)-N-(3-methoxypropyl)benzamide]",300 ± 30 nM,6.7,"EC50 (hRSV strain Long; human respiratory syncytial virus, RSV CPE, as given in abstract): 300 to 500 nM; inhibition of recRSV-luciferase (recRSV-luciferase): efficiently inhibited; activity against recMeV-luciferase (recMeV-luciferase): inactive; inhibition at 10 µM [1]: 70%; inhibition at 10 µM [2]: 52%"

# Source: article PMC4281105 (Journal of medicinal chemistry, 2014)
